Entries after “also recorded” stand apart in the source; their conditions may differ.

The subject of one assay is COX-2 expression. Put plainly: COX-2 expression in A549 cells (Western blot). The format is cell-based, human. The note with it: 10 µM, 24 h, IL-1β. As to the method: Cytoplasmic and nuclear extracts (100 µg each) and 30 µg whole-cell lysates were diluted in 5× Laemmli loading dye and denatured for 10 min at 95°C, loaded on a 10% SDS polyacrylamide gel, and separated by gel electrophoresis for 15 min at 80 V followed by 60 min at 120 V. The separated proteins were blotted onto a nitrocellulose membrane (Hybond-C Extra, Amersham Biosciences Ltd., UK) using the Mini Trans-Blot® module (Bio-Rad, Hercules, California, United States) for 90 min at 90 V. The membrane was blocked with Odyssey blocking buffer (Li-Cor Biosciences, Bad Homburg, Germany) or 5% milk powder in TBS-T (Tris Buffered Saline with 0.1% Tween) for 1 h at room temperature (RT). The membranes were incubated with the primary antibodies overnight at 4°C, and then with the secondary antibodies for 1 h at RT. The primary antibodies were diluted 1:1,000 and the secondary antibodies were diluted 1:10,000 to 1:20,000. […] Upon detection, the membrane was washed three times with 1× PBS-T (Phosphate-Buffered Saline with 0.1% Tween) or TBS-T and finally once with 1× PBS or TBS before the protein–antibody interaction was visualized on an Odyssey Infrared Imaging System (Li-Cor Biosciences) at 700 nm or 800 nm depending on the fluorophore of the secondary antibody.
Suppl. Figure 6: Effects of NFA on cellular COX-2 expression. Representative Western Blot of A549 cells treated with (A) NFA with different carbon chain length and (B) different Michael acceptor position for 24 h without IL-1 β stimulation (1 ng/ml) and the densitometrical evaluation of n=4-5 experiments (C, D). Representative Western Blot of A549 cells stimulated with IL-1 β and subsequent treatment with (E) NFA with different carbon chain length and (F) different Michael acceptor position for 24 h and the densitometrical evaluation of n=4-5 experiments (G, H). Intracellular COX-2 levels were normalized to β-actin and presented as mean + SD. Statistical significance was calculated by one-way ANOVA with Bonferroni post-test. P-values of **** P ≦0.0001, **P ≦0.0021, and *P ≦0.03 are considered significant. COX, cyclooxygenase; DMSO , dimethyl sulfoxide; NFA, nitro fatty acids
(§1) (1 picture or pasted object on this page, not shown here)
(Immunoblotting shows a protein as a band on a membrane.)
`CCCCCCCCCCCCC=C(CCCC(=O)O)[N+](=O)[O-]` [18.5.5, 5-nitro-octadec-5-enoic acid]: the “COX-2 expression in IL-1β-stimulated A549 cells” value (“COX-2 expression” below) is reported as “highest effects”.

Turning to `CCCCCCCCCCC=C(CCCCCC(=O)O)[N+](=O)[O-]` [18.7.7, 7-nitro-octadec-7-enoic acid], the “COX-2 expression” value was “highest effects”. Take `CCCCCCCCCC=C(CCCCCCC(=O)O)[N+](=O)[O-]` [18.8.8, 8-nitro-octadec-8-enoic acid]: the “COX-2 expression” value is “highest effects”.

Still in this assay, the particulars now being: 24 h, without IL-1β.
In the case of `CCCCCCCCCCC=C(CCCCCC(=O)O)[N+](=O)[O-]` [18.7.7, 7-nitro-octadec-7-enoic acid], the “COX-2 gene expression in non-stimulated A549 cells” value is on record as “clearly increased COX-2 gene expression”.

A further assay concerns the target T1, COX-2 (Homo sapiens, UniProt P35354).
T1 sequence (P35354 18-604): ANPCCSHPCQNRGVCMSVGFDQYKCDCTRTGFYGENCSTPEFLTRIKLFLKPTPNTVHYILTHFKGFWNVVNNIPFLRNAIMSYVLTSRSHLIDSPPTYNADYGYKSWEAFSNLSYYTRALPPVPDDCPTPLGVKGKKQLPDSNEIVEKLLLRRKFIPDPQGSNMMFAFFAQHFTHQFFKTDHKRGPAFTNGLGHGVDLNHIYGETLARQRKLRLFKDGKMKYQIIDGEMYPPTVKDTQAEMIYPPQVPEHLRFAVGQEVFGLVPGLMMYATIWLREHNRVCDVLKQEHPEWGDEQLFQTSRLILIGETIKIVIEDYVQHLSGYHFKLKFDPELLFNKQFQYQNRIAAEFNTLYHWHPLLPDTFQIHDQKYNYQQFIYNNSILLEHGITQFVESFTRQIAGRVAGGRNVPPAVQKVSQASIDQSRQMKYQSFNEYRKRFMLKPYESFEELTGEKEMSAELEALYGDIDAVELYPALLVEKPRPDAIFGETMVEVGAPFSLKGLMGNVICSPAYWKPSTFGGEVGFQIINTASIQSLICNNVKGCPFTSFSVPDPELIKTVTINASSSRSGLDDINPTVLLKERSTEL
Put plainly: Cell-based COX-2 activity assay in IL-1β-stimulated A549 cells. The arrangement: endogenous in cells; host or cells: A549 stimulated with 1 ng/ml IL-1β. As to conditions: 10 µM, 24 h, 1 ng/ml IL-1β. As to the method:
The COX-2 inhibitory effects of NFA were investigated using a cell-based COX-2 activity assay performed using a Cyclooxygenase (COX) Activity Assay Kit (Fluorometric) from Abcam (Cambridge, UK; #ab204699). A549 cells (3 × 10^6) were seeded in 10-cm dishes and allowed to become adherent for 3 h. […] Then, cells were detached with a cell scraper and washed twice with 1× PBS before being resuspended in 100 µl lysis buffer (1× PBS containing 1% NP-40). The cells were incubated for 30 min with shaking on ice. After 3-min centrifugation at 12,000 ×g at 4°C, 20 µl supernatant was used for the COX activity assay. The assay was performed according to the manufacturer’s instructions in a white 96-well microplate with a clear bottom in duplicate. […] COX-2 activity was normalized to protein concentration.
Suppl. Figure 5: Effects of NFA on cellular COX-2 activity. COX-2 Activity of A549 cells […]
h. Cells were lysed, and COX-2 activity was measured using Cyclooxygenase (COX) Activity Assay Kit (Fluorometric) from Abcam. (A) NFA derivatives with different chain length. (B) NFA derivatives with different Michael acceptor position. Samples were normalized to protein concentration. Data are presented as mean + SD of n=4. COX, cyclooxygenase; DMSO, dimethyl sulfoxide NFA, nitro fatty acids .
as §1
Take `CCC=C(CCCCCCCC(=O)O)[N+](=O)[O-]` [12.9.9, 9-nitro-dodec-9-enoic acid]: the “effect on COX-2 activity in IL-1β-stimulated A549 cells” value (from here on “effect on COX-2 activity”) is listed as “failed increasing COX-2 product formation”.

As for `CCCCC=C(CCCCCCCC(=O)O)[N+](=O)[O-]` [14.9.9, 9-nitro-tetradec-9-enoic acid], the “effect on COX-2 activity” value is “failed increasing COX-2 product formation”. Still for that read-out and setting: the value for `CCCCCCC=C(CCCCCCCC(=O)O)[N+](=O)[O-]` [16.9.9, 9-nitro-hexadec-9-enoic acid] was “failed increasing COX-2 product formation”; that for `CCCCCCCCCCCC=C(CCCCC(=O)O)[N+](=O)[O-]` [18.6.6, 6-nitro-octadec-6-enoic acid] was “induced COX-2 activity”. On the same count and under the same terms, the value for `CCCCCCCCCC=C(CCCCCCC(=O)O)[N+](=O)[O-]` [18.8.8, 8-nitro-octadec-8-enoic acid] was “induced COX-2 activity”; that for `CCCCCCCCC=C(CCCCCCCC(=O)O)[N+](=O)[O-]` [18.9.9, 9-nitro-octadec-9-enoic acid] was “no COX-2 inhibition”; that for `CCCCCCCC=C(CCCCCCCCC(=O)O)[N+](=O)[O-]` [18.10.10, 10-nitro-octadec-10-enoic acid] was “slight COX-2 inhibition”.

For `CCCCCCCCCCC=C(CCCCCCCC(=O)O)[N+](=O)[O-]` [20.9.9, 9-nitro-eicos-9-enoic acid], the “effect on COX-2 activity” value is on record as “no COX-2 inhibition; also recorded: increased COX-2 product formation”.

The record behind these values is article PMC8637440, “Structural Modifications Yield Novel Insights Into the Intriguing Pharmacodynamic Potential of Anti-inflammatory Nitro-Fatty Acids” (Frontiers in Pharmacology, 2021).
